Columns and labels:
Type in all cases: biochemical
[1] = target: wild type PKR (Homo sapiens, UniProt P30613); test: PKR assay, AC50 (wild type); settings: read-out: PKR WT AC50
Experimental: (§1) • PKR or PKR mutant enzyme solution was diluted in assay buffer. • 2 μL of test compound was added into wells first, and then 180 μL reaction mix was added. • Reactions mixture with test compound was assembled except for ADP, and plates were stored for 60 minutes at room temperature. • 20 uL ADP was added to start reaction at room temperature and reaction progress was measured as changes in absorbance at 340 nm wavelength at room temperature.
(§2) Test Compound Preparation: • Test compound stock was made at 100× concentration in 100% DMSO (10 mM) • 1 to 3 dilutions were made for 11 points (i.e. 50 μl of first concentration added to 100 μl 100% DMSO to yield 3.33 mM, 50 μl of this added to 100 μl DMSO to yield 1.11 mM, and so forth) • 1 to 100 dilution into assay (2 μl in 200 μl) yielded starting concentration of 100 μM, decreasing 3 fold for 11 points.

[2] = target: T1, PKR R510Q (Homo sapiens, UniProt P30613, R510Q); test: PKR R510Q Single Point Percent Activation Assay; settings: compound at 1 μM; for activation at 1 µM: read-out: % Act. R510Q
T1 sequence (P30613 whole entry R510Q): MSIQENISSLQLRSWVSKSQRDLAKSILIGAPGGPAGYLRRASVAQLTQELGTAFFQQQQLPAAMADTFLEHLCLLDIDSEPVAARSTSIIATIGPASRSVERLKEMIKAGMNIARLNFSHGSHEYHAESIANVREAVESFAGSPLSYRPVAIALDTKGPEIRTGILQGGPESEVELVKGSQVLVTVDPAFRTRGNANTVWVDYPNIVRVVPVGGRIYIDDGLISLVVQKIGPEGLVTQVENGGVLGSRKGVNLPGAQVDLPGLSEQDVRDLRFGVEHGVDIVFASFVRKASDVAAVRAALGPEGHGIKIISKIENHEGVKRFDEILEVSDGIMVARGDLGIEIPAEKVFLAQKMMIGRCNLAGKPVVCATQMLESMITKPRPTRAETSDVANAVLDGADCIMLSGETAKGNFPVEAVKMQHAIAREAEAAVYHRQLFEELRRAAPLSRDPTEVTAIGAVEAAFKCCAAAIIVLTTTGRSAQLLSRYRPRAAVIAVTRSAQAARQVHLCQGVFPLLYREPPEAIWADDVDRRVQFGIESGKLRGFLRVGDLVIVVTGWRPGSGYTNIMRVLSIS
Experimental: PKR R510Q Single Point Percent Activation Assay
(§3) A compound described herein was diluted with DMSO and tested at 1 μM concentration. The enzyme was diluted in 1× Buffer: (100 mM KCl, 50 mM Tris 7.5, 5 mM MgCl2, 1 mM DTT, 0.03% BSA). 2 μL of compound solution was first added into wells, and then 180 μL of enzyme solution was added. Assays were assembled except for ADP, and plates were stored for 60 minutes at RT. 20 μL ADP was added to start the assay and assay output was evaluated using OD340 at SpectraMax. The assay was run at room temperature.
PKR R510Q (40 ng/well), Tris pH 7.5 (50 mM), KCl (100 mM), MgCl2 (5 mM), ADP (0.2 mM), PEP (0.11 mM), NADH (180 μM), LDH (0.5 units, Sigma 59023), DTT (1 mM) and BSA (0.03%).

[3] = target: T2, PKR R532W (Homo sapiens, UniProt P30613, R532W); test: PKR R532W Single Point Percent Activation Assay; settings: compound at 1 μM; for activation at 1 µM: read-out: % Act. R532W
T2 sequence (P30613 whole entry R532W): as the sequence (P30613 whole entry R510Q) above, with Q510R, R532W counted along it
Experimental: PKR R532W Single Point Percent Activation Assay
as §3
PKR R532W (100 ng/well), Tris pH 7.5 (50 mM), KCl (100 mM), MgCl2 (5 mM), ADP (0.36 mM), PEP (0.1 mM), NADH (180 μM), LDH (0.5 units, Sigma 59023), DTT (1 mM) and BSA (0.03%).

[4] = target: PKR wt (Homo sapiens, UniProt P30613); test: PKR WT Single Point Percent Activation Assay; settings: compound at 1 μM
Chain of PKR wt (P30613 whole entry): as the sequence (P30613 whole entry R510Q) above, with Q510R counted along it
Experimental: PKR WT Single Point Percent Activation Assay
as §3
PKR wt (100 ng/well), Tris pH 7.5 (50 mM), KCl (100 mM), MgCl2 (5 mM), ADP (0.48 mM), PEP (0.15 mM), NADH (180 μM), LDH (0.5 units, Sigma 59023), DTT (1 mM) and BSA (0.03%).

[5] = target: T3, PKR T384W (Homo sapiens, UniProt P30613); test: PKR T384W Single Point Percent Activation Assay; settings: compound at 1 μM
T3 sequence (P30613 whole entry T384M): as the sequence (P30613 whole entry R510Q) above, with T384M, Q510R counted along it
Experimental: PKR T384W Single Point Percent Activation Assay
as §3, with “180 μL enzyme solution” for “180 μL of enzyme solution”
PKR T384W soluble (300 ng/well), Tris pH 7.5 (50 mM), KCl (100 mM), MgCl2 (5 mM), ADP (0.08 mM), PEP (0.23 mM), NADH (180 μM), LDH (0.5 units, Sigma 59023), DTT (1 mM) and BSA (0.03%).

[6] = target: T3, PKR T384W; test: PKR Mutant Assay, AC50 (T384W)
Experimental: as §1, §2

[7] = target: T2, PKR R532W; test: PKR Mutant Assay, AC50 (R532W)
Experimental: as §1, §2

[8] = target: T1, PKR R510Q; test: PKR Mutant Assay, AC50 (R510Q)
Experimental: as §1, §2

[9] = target: PKR R479H (Homo sapiens, UniProt P30613, R479H); test: PKR Mutant Assay, AC50 (R479H)
Chain of PKR R479H (P30613 whole entry R479H): as the sequence (P30613 whole entry R510Q) above, with R479H, Q510R counted along it
Experimental: as §1, §2

[10] = target: PKR G364D (Homo sapiens, UniProt P30613, G364D); test: PKR Mutant Assay, AC50 (G364D)
Chain of PKR G364D (P30613 whole entry G364D): as the sequence (P30613 whole entry R510Q) above, with G364D, Q510R counted along it
Experimental: as §1, §2

Chain of wild type PKR (P30613 whole entry): as the sequence (P30613 whole entry R510Q) above, with Q510R counted along it

| AC50 [1] [µM] | AC50 [6] [µM] | AC50 [7] [µM] | AC50 [8] [µM] | Compound | % Act. T384W [5] | other results |
| --- | --- | --- | --- | --- | --- | --- |
| < 0.1 | – | – | – | Cc1cc(C(=O)N2CC(Oc3ccccc3)C2)ccc1NS(=O)(=O)c1cccc2cccnc12 [drawing 10] | A (a % activation at 1 μM of from 1 to 100) | activation at 1 µM [2]: 101 to 500%; activation at 1 µM [3]: 1 to 100%; activation at 1 µM [4]: 1 to 100% |
| 0.101 to 0.5 | – | – | – | O=C(c1ccc(NS(=O)(=O)c2cccc3cccnc23)cc1)N1CC(OCc2ccccc2)C1 [drawing 12] | B (a % activation at 1 μM of from 101 to 500) | activation at 1 µM [2]: 101 to 500%; activation at 1 µM [3]: 101 to 500%; activation at 1 µM [4]: 101 to 500% |
| > 0.5 | – | – | – | O=C(NC1CN(C(=O)c2ccc(NS(=O)(=O)c3cccc4cccnc34)cc2)C1)c1ccccn1 [drawing 15] | B (a % activation at 1 μM of from 101 to 500) | % Act. R510Q [2]: B (a % activation at 1 μM of from 101 to 500); % Act. R532W [3]: B (a % activation at 1 μM of from 101 to 500); Act. % WT [4]: B (a % activation at 1 μM of from 101 to 500) |
| > 0.5 | – | – | – | O=C(c1ccc(NS(=O)(=O)c2cccc3cccnc23)c(F)c1)N1CC(Nc2ccccc2)C1 [drawing 22] | B (a % activation at 1 μM of from 101 to 500) | activation at 1 µM [2]: 101 to 500%; activation at 1 µM [3]: 101 to 500%; activation at 1 µM [4]: 101 to 500% |
| 0.101 to 0.5 | – | – | – | O=C(c1ccc(NS(=O)(=O)c2cccc3cccnc23)cc1)N1CC(O)(c2ccccc2)C1 [drawing 40] | B (a % activation at 1 μM of from 101 to 500) | activation at 1 µM [2]: 101 to 500%; activation at 1 µM [3]: 101 to 500%; activation at 1 µM [4]: 101 to 500% |
| < 0.1 | – | – | – | COc1ccccc1OC1CN(C(=O)c2ccc(NS(=O)(=O)c3cccc4cccnc34)c(C)c2)C1 [drawing 63] | A (a % activation at 1 μM of from 1 to 100) | activation at 1 µM [2]: 101 to 500%; activation at 1 µM [3]: 101 to 500%; activation at 1 µM [4]: 101 to 500% |
| – | 0.101 to 0.5 | < 0.1 | > 0.5 | O=C(c1ccc(NS(=O)(=O)c2cccc3cccnc23)cc1)N1CC(Oc2ccccc2)C1 [drawing 70] | – | – |
| – | < 0.1 | < 0.1 | 0.101 to 0.5 | O=C(c1ccc(NS(=O)(=O)c2cccc3cccnc23)cc1)N1CC(O)(Cc2ccccc2)C1 [drawing 71] | – | AC50 [9]: < 0.1 µM; AC50 [10]: 0.101 to 0.5 µM |
| – | 0.101 to 0.5 | 0.101 to 0.5 | > 0.5 | Cc1cc(C(=O)N2CC(NC(=O)c3ccccn3)C2)ccc1NS(=O)(=O)c1cccc2cccnc12 [drawing 73] | – | – |
| – | < 0.1 | < 0.1 | 0.101 to 0.5 | Cc1cc(C(=O)N2CC(Oc3ccccc3)C2)ccc1NS(=O)(=O)c1cccc2cccnc12 [drawing 76] | – | – |
| – | 0.101 to 0.5 | 0.101 to 0.5 | – | O=C(c1ccc(NS(=O)(=O)c2cccc3cccnc23)cc1)N1CC(OCc2ccccc2)C1 [drawing 78] | – | – |
| – | > 0.5 | > 0.5 | – | O=C(NC1CN(C(=O)c2ccc(NS(=O)(=O)c3cccc4cccnc34)cc2)C1)c1ccccn1 [drawing 81] | – | – |
| – | > 0.5 | > 0.5 | > 0.5 | O=C(c1ccc(NS(=O)(=O)c2cccc3cccnc23)c(F)c1)N1CC(Nc2ccccc2)C1 [drawing 88] | – | – |
| – | 0.101 to 0.5 | 0.101 to 0.5 | > 0.5 | O=C(c1ccc(NS(=O)(=O)c2cccc3cccnc23)cc1)N1CC(O)(c2ccccc2)C1 [drawing 106] | – | AC50 [9]: > 0.5 µM; AC50 [10]: > 0.5 µM |
| – | – | – | 0.101 to 0.5 | Cc1cc(C(=O)N2CC(Nc3ccccn3)C2)ccc1NS(=O)(=O)c1cccc2cccnc12 [drawing 121] | – | – |
| – | < 0.1 | < 0.1 | > 0.5 | COc1ccccc1OC1CN(C(=O)c2ccc(NS(=O)(=O)c3cccc4cccnc34)c(C)c2)C1 [drawing 129] | – | – |
| – | – | – | > 0.5 | O=C(Nc1ccccn1)OC1CN(C(=O)c2ccc(NS(=O)(=O)c3cccc4cccnc34)cc2)C1 [drawing 131] | – | – |

From patent US9388164B2, “Methods of using pyruvate kinase activators” (AGIOS PHARMACEUTICALS, INC, priority 2011, dated 2016)
